Test results from patent US10005767B2, “Compositions and methods for inhibition of the JAK pathway” (Rigel Pharmaceuticals, Inc., priority 2009, dated 2018).
Structures can show the parent of a compound that is named as a salt.

What follows are compounds tested on human primary T-cells, IL-2 stimulated proliferation (JAK-1 and JAK-3 dependent; reported as JAK3 activity) (assay: Human primary T-cell proliferation stimulated by IL-2 (Example 3)). Conditions: Homo sapiens, T-cell, tested under conditions described in Example 3 (IL-2 stimulated human primary T-cell proliferation); read-out: ability to inhibit JAK3 activity, IC50 range (Table V).
Assay type: cell-based
Description: The activity of the compounds described herein can further be characterized by assaying the effect of the 2,4-pyrimidinediamine compounds described herein on the proliferative response of primary human T-cells. In this assay, primary human T-cells derived from peripheral blood and pre-activated through stimulation of the T-cell receptor and CD28, proliferate in culture in response to the cytokine Interleukin-2 (IL-2). This proliferative response is dependent on the activation of JAK1 and JAK3 tyrosine kinases, which phosphorylate and activate the transcription factor Stat-5. The primary human T-cells are incubated with the 2,4-pyrimidinediamine compounds in the presence of IL-2 for 72 hours, and at the assay endpoint intracellular ATP concentrations are measured to assess cell viability. A reduction in cell proliferation compared to control conditions is indicative of inhibition of the JAK kinase pathway.
Primary human T-cells derived from peripheral blood and pre-activated through stimulation of the T-cell receptor and CD28, proliferate in vitro in response to the cytokine Interleukin-2 (IL-2). This proliferative response is dependent on the activation of JAK-1 and JAK-3 tyrosine kinases, which phosphorylate and activate the transcription factor Stat-5.
Human primary T cells were prepared as follows. […] The lymphocytes at the serum: ficoll interface were recovered and washed twice with 5 volumes of PBS. […] The primary T-cells were stimulated for 3-4 days, then transferred to a fresh flask and maintained in RPMI with 10% FBS and 40 U/mL IL-2.
The day prior to the assay set up, primary T-cells were centrifuged and resuspended in fresh RPMI with 10% FBS but without IL-2 and starved overnight. For the assay, the primary T-cells were centrifuged and resuspended Yssel's medium at 2×10^6 cells/mL. 50 μL of cell suspension containing 80 U/mL IL-2 was added to each well of a flat bottom 96 well black plate. For the unstimulated control, IL-2 was omitted from the last column on the plate. […] 50 μL of 2× compound was added per well in duplicate and the cells were allowed to proliferate for 72 hours at 37° C.
Proliferation was measured using CellTiter-Glo® Luminescent Cell Viability Assay (Promega), which determines the number of viable cells in culture based on quantitation of the ATP present, as an indicator of metabolically active cells. The substrate was thawed and allowed to come to ambient temperature. After mixing the Cell Titer-Glo reagent and diluent together, 100 μL was added to each well. The plates were mixed on an orbital shaker for two minutes to induce lysis and incubated at ambient temperature for an additional ten minutes to allow the signal to equilibrate.
The compound designations in Table V are consistent with those of Tables I-IV above.

Question: For `N#Cc1cccc(Nc2ncc(F)c(Nc3ccc4oc(=O)[nH]c4c3)n2)c1` [Compound I-44, N4-(benzo[d]oxazol-2(3H)-on-5-yl)-N2-(3-cyanophenyl)-5-fluoropyrimidine-2,4-diamine], which IC50 is on record?
Answer: < 0.5 µM

Question: With `N#Cc1ccc(Nc2ncc(F)c(Nc3ccc4oc(=O)[nH]c4c3)n2)cc1` [Compound I-45, N4-(benzo[d]oxazol-2(3H)-on-5-yl)-N2-(4-cyanophenyl)-5-fluoropyrimidine-2,4-diamine] as the compound, how does the IC50 read?
Answer: < 0.5 µM

Question: For `Cc1cnc(Nc2ccc(NS(C)(=O)=O)cc2)nc1Nc1ccc2[nH]c(=O)[nH]c2c1` [Compound I-50, N2-(4-(methylsulfonylamino)phenyl)-N4-(1H-benzo[d]imidazol-2(3H)-on-5-yl)-5-methylpyrimidine-2,4-diamine], which IC50 is on record?
Answer: < 0.5 µM

Question: `CS(=O)(=O)Nc1ccc(Nc2ncc(F)c(Nc3ccc4[nH]c(=O)[nH]c4c3)n2)cc1` [Compound I-51, N2-(4-(methylsulfonylamino)phenyl)-N4-(1H-benzo[d]imidazol-2(3H)-on-5-yl)-5-fluoropyrimidine-2,4-diamine] was tested. Which IC50 did it give?
Answer: 0.5 to 5 µM

Question: `Cc1cnc(Nc2cccc(NS(C)(=O)=O)c2)nc1Nc1ccc2[nH]c(=O)[nH]c2c1` [Compound I-54, N2-(3-(methylsulfonylamino)phenyl)-N4-(1H-benzo[d]imidazol-2(3H)-on-5-yl)-5-methylpyrimidine-2,4-diamine] was tested. Which IC50 did it give?
Answer: < 0.5 µM

Same assay, conditions: tested under conditions described in Example 3 (IL-2 stimulated human primary T-cell proliferation); read-out: ability to inhibit JAK3 activity, IC50 range (Table V)

Question: For `O=c1[nH]c2ccc(Nc3nc(Nc4cccc(S(=O)(=O)N5CCOCC5)c4)ncc3F)cc2[nH]1` [Compound I-32, N4-(benzimidazolin-2-on-5-yl)-N2-(3-(morpholinosulfonyl)phenyl)-5-fluoropyrimidine-2,4-diamine], which IC50 is on record?
Answer: 0.5 to 5 µM

Question: For `Cc1cnc(Nc2cccc(S(C)(=O)=O)c2)nc1Nc1ccc2oc(=O)n(COP(=O)(O)O)c2c1` [Compound I-33, N4-(3-phosphorylmethylbenzo[d]oxazol-2(3H)-on-5-yl)-N2-((3-methylsulfonyl)phenyl)-5-methylpyrimidine-2,4-diamine], which IC50 is on record?
Answer: < 0.5 µM

Question: Which IC50 does the source give for `Cc1cnc(Nc2cccc(S(N)(=O)=O)c2)nc1Nc1ccc2c(c1)n(C)c(=O)n2C` [Compound I-34, N4-(1,3-dimethylbenzimidazolin-2-on-5-yl)-N2-((3-aminosulfonyl)phenyl)-5-methylpyrimidine-2,4-diamine] here?
Answer: < 0.5 µM

Question: Which IC50 does the source give for `Cc1cnc(Nc2ccc(S(N)(=O)=O)cc2)nc1Nc1ccc2c(c1)n(C)c(=O)n2C` [Compound I-35, N4-(1,3-dimethylbenzimidazolin-2-on-5-yl)-N2-((4-aminosulfonyl)phenyl)-5-methylpyrimidine-2,4-diamine] here?
Answer: > 10 µM

Question: With `Cc1cnc(Nc2cccc(S(C)(=O)=O)c2)nc1Nc1ccc2c(c1)n(C)c(=O)n2C` [Compound I-36, N4-(1,3-dimethylbenzimidazolin-2-on-5-yl)-N2-((3-methylsulfonyl)phenyl)-5-methylpyrimidine-2,4-diamine] as the compound, how does the IC50 read?
Answer: < 0.5 µM

Question: With `Cc1cnc(Nc2cccc(NS(C)(=O)=O)c2)nc1Nc1ccc2c(c1)n(C)c(=O)n2C` [Compound I-37, N4-(1,3-dimethylbenzimidazolin-2-on-5-yl)-N2-((3-methylsulfonylamino)phenyl)-5-methylpyrimidine-2,4-diamine] as the compound, how does the IC50 read?
Answer: < 0.5 µM

Question: For `Cc1cnc(Nc2ccc(NS(C)(=O)=O)cc2)nc1Nc1ccc2c(c1)n(C)c(=O)n2C` [Compound I-38, N4-(1,3-dimethylbenzimidazolin-2-on-5-yl)-N2-((4-methylsulfonylamino)phenyl)-5-methylpyrimidine-2,4-diamine], which IC50 is on record?
Answer: < 0.5 µM

Question: How did the IC50 turn out when `Cn1c(=O)n(C)c2cc(Nc3nc(Nc4cccc(S(N)(=O)=O)c4)ncc3F)ccc21` [Compound I-39, N4-(1,3-dimethylbenzimidazolin-2-on-5-yl)-N2-((3-aminosulfonyl)phenyl)-5-fluoropyrimidine-2,4-diamine] was run?
Answer: < 0.5 µM

Question: With `Cn1c(=O)n(C)c2cc(Nc3nc(Nc4ccc(S(N)(=O)=O)cc4)ncc3F)ccc21` [Compound I-40, N4-(1,3-dimethylbenzimidazolin-2-on-5-yl)-N2-((4-aminosulfonyl)phenyl)-5-fluoropyrimidine-2,4-diamine] as the compound, how does the IC50 read?
Answer: > 10 µM

Question: Which IC50 does the source give for `Cn1c(=O)n(C)c2cc(Nc3nc(Nc4cccc(S(C)(=O)=O)c4)ncc3F)ccc21` [Compound I-41, N4-(1,3-dimethylbenzimidazolin-2-on-5-yl)-N2-((3-methylsulfonyl)phenyl)-5-fluoropyrimidine-2,4-diamine] here?
Answer: 0.5 to 5 µM

Question: Which IC50 does the source give for `Cn1c(=O)n(C)c2cc(Nc3nc(Nc4cccc(NS(C)(=O)=O)c4)ncc3F)ccc21` [Compound I-42, N4-(1,3-dimethylbenzimidazolin-2-on-5-yl)-N2-((3-methylsulfonylamino)phenyl)-5-fluoropyrimidine-2,4-diamine] here?
Answer: 0.5 to 5 µM

Question: For `Cn1c(=O)n(C)c2cc(Nc3nc(Nc4ccc(NS(C)(=O)=O)cc4)ncc3F)ccc21` [Compound I-43, N4-(1,3-dimethylbenzimidazolin-2-on-5-yl)-N2-((4-methylsulfonylamino)phenyl)-5-fluoropyrimidine-2,4-diamine], which IC50 is on record?
Answer: 0.5 to 5 µM

Question: With `Cc1cnc(Nc2cccc(N3CCOCC3)c2)nc1Nc1ccc2oc(=O)[nH]c2c1` [Compound I-46, N4-(benzo[d]oxazol-2(3H)-on-5-yl)-N2-((3-morpholinyl)phenyl)-5-methylpyrimidine-2,4-diamine] as the compound, how does the IC50 read?
Answer: < 0.5 µM

Question: With `O=c1[nH]c2cc(Nc3nc(Nc4cccc(N5CCOCC5)c4)ncc3F)ccc2o1` [Compound I-47, N4-(benzo[d]oxazol-2(3H)-on-5-yl)-N2-((3-morpholinyl)phenyl)-5-fluoropyrimidine-2,4-diamine] as the compound, how does the IC50 read?
Answer: < 0.5 µM

Question: With `Cc1cnc(Nc2cccc(N3CCOCC3)c2)nc1Nc1ccc2[nH]c(=O)oc2c1` [Compound I-48, N4-(benzo[d]oxazol-2(3H)-on-6-yl)-N2-((3-morpholinyl)phenyl)-5-methylpyrimidine-2,4-diamine] as the compound, how does the IC50 read?
Answer: < 0.5 µM

Question: `Cc1cnc(Nc2cccc(N3CCOCC3)c2)nc1Nc1ccc2c(c1)oc(=O)n2C` [Compound I-49, N4-(3-methylbenzo[d]oxazol-2(3H)-on-6-yl)-N2-((3-morpholinyl)phenyl)-5-methylpyrimidine-2,4-diamine] was tested. Which IC50 did it give?
Answer: < 0.5 µM

Question: Which IC50 does the source give for `Cc1cnc(Nc2ccc(NS(C)(=O)=O)cc2)nc1Nc1ccc2oc(=O)[nH]c2c1` [Compound I-52] here?
Answer: < 0.5 µM

Question: `CS(=O)(=O)Nc1ccc(Nc2ncc(F)c(Nc3ccc4oc(=O)[nH]c4c3)n2)cc1` [Compound I-53] was tested. Which IC50 did it give?
Answer: < 0.5 µM

Question: Which IC50 does the source give for `Cc1cnc(Nc2cccc(NS(C)(=O)=O)c2)nc1Nc1ccc2oc(=O)[nH]c2c1` [Compound I-55, N4-(benzo[d]oxazol-2(3H)-on-5-yl)-N2-(3-methylsulfonylamino)phenyl)-5-methylpyrimidine-2,4-diamine formate salt] here?
Answer: < 0.5 µM

Question: For `CS(=O)(=O)Nc1cccc(Nc2ncc(F)c(Nc3ccc4oc(=O)[nH]c4c3)n2)c1` [Compound I-56], which IC50 is on record?
Answer: < 0.5 µM

Question: With `Cn1c(=O)oc2cc(Nc3nc(Nc4cccc(S(N)(=O)=O)c4)ncc3F)ccc21` [Compound I-57, N2-((3-aminosulfonyl)phenyl)-N4-(3-methyl-2-oxo-2,3-dihydrobenzo[d]oxazol-6-yl)-5-fluoropyrimidine-2,4-diamine] as the compound, how does the IC50 read?
Answer: < 0.5 µM

Question: With `Cn1c(=O)oc2cc(Nc3nc(Nc4ccc(S(N)(=O)=O)cc4)ncc3F)ccc21` [Compound I-58] as the compound, how does the IC50 read?
Answer: > 10 µM

Question: `Cn1c(=O)oc2cc(Nc3nc(Nc4cccc(S(C)(=O)=O)c4)ncc3F)ccc21` [Compound I-59, N2-((3-methylsulfonyl)phenyl)-N4-(3-methyl-2-oxo-2,3-dihydrobenzo[d]oxazol-6-yl)-5-fluoropyrimidine-2,4-diamine] was tested. Which IC50 did it give?
Answer: < 0.5 µM

Question: With `Cn1c(=O)oc2cc(Nc3nc(Nc4ccc(S(C)(=O)=O)cc4)ncc3F)ccc21` [Compound I-60] as the compound, how does the IC50 read?
Answer: > 10 µM

Question: Which IC50 does the source give for `Cn1c(=O)oc2cc(Nc3nc(Nc4cccc(NS(C)(=O)=O)c4)ncc3F)ccc21` [Compound I-61, N2-((3-methylsulfonylamino)phenyl)-N4-(3-methyl-2-oxo-2,3-dihydrobenzo[d]oxazol-6-yl)-5-fluoropyrimidine-2,4-diamine] here?
Answer: < 0.5 µM

Question: With `Cn1c(=O)oc2cc(Nc3nc(Nc4ccc(NS(C)(=O)=O)cc4)ncc3F)ccc21` [Compound I-62, N2-((4-methylsulfonylamino)phenyl)-N4-(3-methyl-2-oxo-2,3-dihydrobenzo[d]oxazol-6-yl)-5-fluoropyrimidine-2,4-diamine] as the compound, how does the IC50 read?
Answer: 0.5 to 5 µM
